Assay results from ChEMBL document CHEMBL4251653, “In vivo potent BM635 analogue with improved drug-like properties” (Eur J Med Chem, 2018).
Converted amounts (≈) assume the structure as drawn.

Assays:
[1] = Cmax in C57BL/6 mouse at 50 mg/kg, po after 1 to 24 hrs by LC-MS/MS method; type: ADME, organism-based; set-up: dose 50 mg/kg, route oral; conditions: in vivo
HepG2 [2] = assay: Cytotoxicity against human HepG2 cells assessed as compound concentration causing changes in mitochondrial potential by Cell Health assay; type: cell-based
[3] = Clearance in C57BL/6 mouse at 1 mg/kg, iv after 1 to 24 hrs by LC-MS/MS method; type: ADME, organism-based; conditions: in vivo
[4] = tested on: Mycobacterium tuberculosis; assay: microbe, parasite or virus in culture; conditions: 144 h
Description: Antitubercular activity against Mycobacterium tuberculosis after 6 days by resazurin-based fluorescence assay

[5] = AUC (0 to infinity) in C57BL/6 mouse at 1 mg/kg, iv after 1 to 24 hrs by LC-MS/MS method; type: ADME, organism-based; set-up: dose 1 mg/kg, time infinity, route intravenous; conditions: in vivo
[6] = Tmax in C57BL/6 mouse at 50 mg/kg, po after 1 to 24 hrs by LC-MS/MS method; type: ADME, organism-based; conditions: in vivo
[7] = tested on: Mycobacterium tuberculosis; type: functional, H37Rv
[8] = Volume of distribution at steady state in C57BL/6 mouse at 1 mg/kg, iv after 1 to 24 hrs by LC-MS/MS method; type: ADME, organism-based; conditions: in vivo, read-out: Vdss
[9] = tested on: Mycobacterium tuberculosis; assay: microbe, parasite or virus in culture; conditions: H37Rv, THP-1, 96 h
Description: Antitubercular activity against Mycobacterium tuberculosis H37Rv infected in human THP1 macrophages incubated for 4 days by luciferase reporter gene assay

Albumin = Albumin (Homo sapiens, UniProt P02768); assay: Binding affinity to human serum albumin; type: ADME; conditions: isolated protein
Albumin, sequence (P02768 whole entry): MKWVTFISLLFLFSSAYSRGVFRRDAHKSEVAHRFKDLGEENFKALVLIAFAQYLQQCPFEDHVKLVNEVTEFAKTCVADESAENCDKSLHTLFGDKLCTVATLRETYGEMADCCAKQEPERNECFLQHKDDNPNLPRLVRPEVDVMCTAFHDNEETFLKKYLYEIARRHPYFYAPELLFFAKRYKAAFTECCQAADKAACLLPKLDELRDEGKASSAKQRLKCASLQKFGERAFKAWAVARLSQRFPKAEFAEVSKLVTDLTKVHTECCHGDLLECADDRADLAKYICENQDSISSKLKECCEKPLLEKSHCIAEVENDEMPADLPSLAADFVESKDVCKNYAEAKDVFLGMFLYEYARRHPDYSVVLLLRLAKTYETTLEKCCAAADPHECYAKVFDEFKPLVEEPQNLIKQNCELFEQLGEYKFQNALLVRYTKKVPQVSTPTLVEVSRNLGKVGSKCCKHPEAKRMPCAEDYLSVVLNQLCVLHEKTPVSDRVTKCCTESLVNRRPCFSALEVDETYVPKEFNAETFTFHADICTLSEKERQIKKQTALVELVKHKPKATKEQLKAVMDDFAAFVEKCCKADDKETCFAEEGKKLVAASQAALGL

[10] = Cytotoxicity against human HepG2 cells incubated for 48 hrs by Cell-titer Glo assay; type: cell-based; conditions: read-out: TC50
Mus musculus [11] = assay: Dose normalized AUC (0 to infinity) in C57BL/6 mouse at 1 mg/kg, iv after 1 to 24 hrs by LC-MS/MS method; type: ADME, organism-based; conditions: in vivo
in vitro = conditions: human, HepG2 cells
Description: Selectivity index, ratio of TC50 for human HepG2 cells to MIC for Mycobacterium tuberculosis

HepG2 [12] = assay: Cytotoxicity against human HepG2 cells assessed as compound concentration causing changes in membrane permeability by Cell Health assay; type: cell-based
[13] = target: Voltage-gated inwardly rectifying potassium channel KCNH2 (Homo sapiens, UniProt Q12809); assay: Inhibition of human ERG by [3H]dofetilide binding displacement assay
Voltage-gated inwardly rectifying potassium channel KCNH2, sequence (Q12809 whole entry): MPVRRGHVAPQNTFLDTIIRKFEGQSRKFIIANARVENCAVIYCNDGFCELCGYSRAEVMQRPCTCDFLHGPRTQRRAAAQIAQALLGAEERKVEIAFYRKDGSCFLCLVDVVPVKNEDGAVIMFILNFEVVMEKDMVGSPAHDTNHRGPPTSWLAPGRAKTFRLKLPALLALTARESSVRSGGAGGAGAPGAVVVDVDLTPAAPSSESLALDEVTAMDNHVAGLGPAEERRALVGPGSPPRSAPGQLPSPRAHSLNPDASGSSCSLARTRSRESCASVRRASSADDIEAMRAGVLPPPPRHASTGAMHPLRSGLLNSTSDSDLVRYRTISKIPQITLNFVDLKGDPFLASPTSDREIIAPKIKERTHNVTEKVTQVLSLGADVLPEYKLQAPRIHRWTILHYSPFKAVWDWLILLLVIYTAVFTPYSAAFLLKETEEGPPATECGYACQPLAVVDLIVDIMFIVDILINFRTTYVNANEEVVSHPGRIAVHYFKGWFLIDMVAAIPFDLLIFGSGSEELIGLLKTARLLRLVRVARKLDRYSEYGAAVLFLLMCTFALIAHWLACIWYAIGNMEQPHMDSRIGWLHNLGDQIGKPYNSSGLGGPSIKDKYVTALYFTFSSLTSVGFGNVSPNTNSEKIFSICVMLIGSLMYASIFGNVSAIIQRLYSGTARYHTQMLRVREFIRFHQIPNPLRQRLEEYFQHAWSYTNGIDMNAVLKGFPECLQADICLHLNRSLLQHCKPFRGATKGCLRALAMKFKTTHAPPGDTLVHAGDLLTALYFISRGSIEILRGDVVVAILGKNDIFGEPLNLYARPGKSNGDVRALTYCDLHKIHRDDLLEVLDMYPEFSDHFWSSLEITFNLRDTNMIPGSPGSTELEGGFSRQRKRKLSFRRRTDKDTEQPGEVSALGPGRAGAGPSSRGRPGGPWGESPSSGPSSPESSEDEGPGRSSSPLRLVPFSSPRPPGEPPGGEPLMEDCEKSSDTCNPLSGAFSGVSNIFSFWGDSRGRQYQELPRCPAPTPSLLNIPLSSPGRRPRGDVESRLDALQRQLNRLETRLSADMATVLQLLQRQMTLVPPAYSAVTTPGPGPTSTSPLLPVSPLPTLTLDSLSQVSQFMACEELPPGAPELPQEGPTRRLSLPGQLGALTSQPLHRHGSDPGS

[14] = Permeability of the compound by artificial membrane permeability assay; type: ADME; conditions: PAMPA; read-out: permeability
[15] = Solubility of the compound in FaSSIF at pH 6.5 incubated for 4 hrs by UPLC-MS method; type: physicochemical
[16] = Kinetic solubility in pH 7.4 phosphate buffered saline incubated for 1 hr by chemiluminescent nitrogen detection method; type: physicochemical; conditions: read-out: Kinetic_solubility
Mus musculus [17] = assay: Tlast in C57BL/6 mouse at 50 mg/kg, po after 1 to 24 hrs by LC-MS/MS method; type: ADME, organism-based; conditions: in vivo
[18] = Lipophilicity, log D of the compound at pH 7.4 by UV-HPLC method; type: physicochemical; conditions: buffer, read-out: logD
[19] = Oral bioavailability in C57BL/6 mouse at 50 mg/kg after 1 to 24 hrs by LC-MS/MS method; type: ADME, organism-based; conditions: in vivo
HepG2 [20] = assay: Cytotoxicity against human HepG2 cells assessed as compound concentration causing changes in nuclear morphology by Cell Health assay; type: cell-based
[21] = Half life in C57BL/6 mouse at 1 mg/kg, iv after 1 to 24 hrs by LC-MS/MS method; type: ADME, organism-based; conditions: in vivo
Mus musculus [22] = assay: Dose normalized AUC (0 to infinity) in C57BL/6 mouse at 4 mg/kg, iv after 1 to 24 hrs by LC-MS/MS method; type: ADME, organism-based; conditions: in vivo
[23] = Half life in C57BL/6 mouse at 4 mg/kg, iv after 1 to 24 hrs by LC-MS/MS method; type: ADME, organism-based; conditions: in vivo
[24] = Volume of distribution at steady state in C57BL/6 mouse at 4 mg/kg, iv after 1 to 24 hrs by LC-MS/MS method; type: ADME, organism-based; conditions: in vivo, read-out: Vdss
[25] = AUC (0 to infinity) in C57BL/6 mouse at 4 mg/kg, iv after 1 to 24 hrs by LC-MS/MS method; type: ADME, organism-based; set-up: dose 4 mg/kg, route intravenous, time infinity; conditions: in vivo
[26] = Clearance in C57BL/6 mouse at 4 mg/kg, iv after 1 to 24 hrs by LC-MS/MS method; type: ADME, organism-based; conditions: in vivo
[27] = tested on: Mycobacterium tuberculosis; type: functional, H37Rv; remark: listed apart in the source

| Compound | Cmax [1] [µg/mL] | Activity (HepG2 [2]) [µM] | MIC [4] [µM] | Tmax [6] [min] | Activity [7] [log10CFU] | Activity (Albumin) [%] | CC50 at 48 h [10] [µM] | Activity (HepG2 [12]) [µM] | Papp [14] [nm/s] | solubility at 4 h [15] [mg/mL] | solubility kinetic at 1 h [16] [µM] | Tlast (Mus musculus [17]) [h] | logD [18] | bioavailability [19] [%] | Activity (HepG2 [20]) [µM] | also measured |
| --- | --- | --- | --- | --- | --- | --- | --- | --- | --- | --- | --- | --- | --- | --- | --- | --- |
| Cc1c(CN2CCOCC2)cc(-c2ccc(C(C)C)cc2)n1C1CCCOC1 (centres undefined) | 0.548 | > 200 | 0.15 (≈ 0.0574 µg/mL) | 54 | 0.1 | 92.85 | 50 | > 200 | 730 | 0.043 (≈ 112 µM) | 241 (≈ 92.2 µg/mL) | 8 | 6.86 | 23 | > 200 | clearance [3]: 7.5 L/h/kg; AUC(0-inf) [5]: 0.138 µg·h/mL; Vd [8]: 3.5 L/kg; IC50 [9]: 0.3 µM; AUC/dose (Mus musculus [11]): 138 ng·h/mL/mg/kg; selectivity ratio (in vitro): 333; IC50 [13]: 10 µM; half-life [21]: 24 min |
| Cc1c(CN2CCOCC2)cc(-c2ccc(C(C)C)cc2)n1C(C)C | 0.177 | 32 | 0.15 (≈ 0.0511 µg/mL) | 42 | 1.5 | 94.11 | 20 | 32 | 720 | 0.249 (≈ 731 µM) | 199 (≈ 67.8 µg/mL) | 7.3 | 7.68 | 1.2 | 25 | AUC/dose (Mus musculus [22]): 1006 ng·h/mL/mg/kg; half-life [23]: 102 min; Vd [24]: 1.8 L/kg; AUC(0-inf) [25]: 4.02 µg·h/mL; clearance [26]: 1.01 L/h/kg |
| COc1c(N2C[C@@H]3CCCN[C@@H]3C2)c(F)cc2c(=O)c(C(=O)O)cn(C3CC3)c12 [MOXIFLOXACIN] | – | – | – | – | – | – | – | – | – | – | – | – | – | – | – | Activity [27]: 3.1 log10CFU |
